According to patent US20160137639A1, “TRIAZOLE-ISOXAZOLE COMPOUND AND MEDICAL USE THEREOF” (JAPAN TOBACCO INC., priority 2012, published 2016):
Read-outs that look alike come from different tables or passages of the source.

Legend:
human RORγ = biological target: T1, human RORγ (Homo sapiens, UniProt P51449); test: Luciferase reporter gene assay of inhibitory effect against RORγ transcriptional activity (GAL4-hRORγ plasmid in CHO cells); assay type: cell-based
T1 construct: human, NM_005060.3 and from Ser253 to Lys518; expressed in transfected cells; host or cells: CHO cells (transient co-transfection with pG5-Luc reporter)
T1 sequence (P51449 253-518): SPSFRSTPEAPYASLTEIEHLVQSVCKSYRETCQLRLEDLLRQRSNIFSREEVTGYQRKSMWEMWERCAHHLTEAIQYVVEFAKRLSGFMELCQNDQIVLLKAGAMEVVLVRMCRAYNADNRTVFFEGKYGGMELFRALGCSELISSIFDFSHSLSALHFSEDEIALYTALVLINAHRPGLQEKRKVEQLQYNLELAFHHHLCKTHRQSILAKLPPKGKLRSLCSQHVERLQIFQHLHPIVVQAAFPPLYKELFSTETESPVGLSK

mouse RORγ = biological target: T2, mouse RORγ (Mus musculus, UniProt P51450); test: Luciferase reporter gene assay of inhibitory effect against RORγ transcriptional activity (GAL4-mRORγ plasmid in CHO cells); assay type: cell-based
T2 construct: mouse, NM_011281.2 and from Ile251 to Lys516; expressed in transfected cells; host or cells: CHO cells (transient co-transfection with pG5-Luc reporter)
T2 sequence (P51450 251-516): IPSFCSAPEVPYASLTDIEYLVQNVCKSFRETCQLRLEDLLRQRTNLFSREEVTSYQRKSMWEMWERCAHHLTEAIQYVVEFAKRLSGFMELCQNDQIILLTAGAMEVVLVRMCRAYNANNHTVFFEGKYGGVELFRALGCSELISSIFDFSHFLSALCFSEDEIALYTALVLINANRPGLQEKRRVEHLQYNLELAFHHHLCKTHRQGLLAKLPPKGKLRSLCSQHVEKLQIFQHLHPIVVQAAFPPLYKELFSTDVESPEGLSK
How it was run: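 CHO cells transiently co-transfected with GAL4-mouse RORγ LBD (Ile251–Lys516) and GAL4-dependent luciferase reporter; eight compound concentrations, 0.1% DMSO, 2 days at 37 °C. Luminescence as %-of-vehicle control; EC50 by curve fit, cytotoxic concentrations excluded.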

SMILES | EC50 (human RORγ; read-out: LUC EC50 (μM) hRORg) [µM] | EC50 (mouse RORγ; read-out: LUC EC50 (μM) mRORg) [µM] | EC50 (human RORγ; read-out: LUC EC50 hRORg) [µM] | EC50 (mouse RORγ; read-out: LUC EC50 mRORg) [µM]
CCn1c(CCC(=O)Nc2cccc3ccccc23)nnc1CCC(C)(C)C [Example F-25] | > 3 | < 3 | – | –
Cc1ccc(NC(=O)CCc2nnc([C@H]3C[C@@H](CCC(C)C)C3)n2C2CC2)c(C)c1 [Example F-444] | < 3 | < 3 | – | –
CCn1c(C2Cc3ccccc3C2)nnc1[C@@H]1C[C@@H]1C(=O)Nc1cccc2ccccc12 (racemic) [Example F-27] | > 3 | < 3 | – | –
COCc1ccc(C)c(NC(=O)CCc2nnc(CCC(C)C)n2C2CC2)c1 [Example F-174] | > 3 | > 3 | – | –
Cc1c(Cl)cccc1NC(=O)CCc1nnc(C2CC(C)C2)n1C1CC1 (mixture of isomers) [Example F-168] | > 3 | < 3 | – | –
Cc1ccc(NC(=O)C[C@H](CCC(=O)O)c2noc(-c3cc(C4CC(CC(C)(C)C)C4)on3)c2C2CC2)c(Cl)c1 (stereo partly shown) [Example E-17] | < 3 | < 3 | – | –
C=C1C[C@H](C(=O)Nc2ccc(C)cc2C)[C@@H](c2nnc([C@H]3C[C@@H](CC(C)C)C3)n2C2CC2)C1 (racemic) [Example F-517] | – | – | < 3 | < 3
Cc1cc(F)ccc1NC(=O)[C@H]1CC(F)(F)C[C@@H]1c1nnc(-c2cc(CC(C)C)on2)n1C1CC1 [Example F-592] | – | – | < 3 | < 3
COc1cccc(CNC(=O)CCc2nnc(CCC(C)C)n2C2CC2)c1C [Example F-127] | > 3 | > 3 | – | –
Cc1ccc(NC(=O)[C@H]2CC(C)(O)C[C@@H]2c2nnc([C@H]3C[C@@H](CC(C)C)C3)n2C2CC2)c(C)c1 (single isomer, unassigned) [Example F-562] | – | – | < 3 | < 3
CCc1ccccc1CNC(=O)CCc1nnc(CCC(C)C)n1C1CC1 [Example F-125] | > 3 | > 3 | – | –
Cc1ccc(NC(=O)C[C@H](CCC(=O)O)c2nnc([C@H]3C[C@@H](CC(C)(C)C(C)C)C3)n2C2CC2)c(Cl)c1 [Example F-708] | – | – | < 3 | < 3
Cc1ccc(NC(=O)C[C@H](Cc2nnn[nH]2)c2noc([C@H]3C[C@@H](CC(C)C)C3)c2C2CC2)c(C)c1 [Example F-641] | – | – | < 3 | < 3
CCCn1c(CCC(=O)Nc2cccc3ccccc23)nnc1C1Cc2ccccc2C1 [Example F-5] | > 3 | > 3 | – | –
COc1cc(C)ccc1CNC(=O)CCc1nnc(CCCC(C)C)n1C1CC1 [Example F-217] | < 3 | < 3 | – | –
CCCC(CC(=O)Nc1cccc(Cl)c1C)c1nnc(CCC(C)C)n1C1CC1 (racemic) [Example F-194] | < 3 | < 3 | – | –
Cc1ccc(NC(=O)C[C@@H](c2nnc(CCCC(C)(C)C)n2C2CC2)N(C)C(=O)OCc2ccccc2)c(C)c1 [Example F-352] | > 3 | > 3 | – | –
CC(=O)N1C[C@H](C(=O)Nc2ccc(C)cc2C)[C@@H](c2nnc(C(O)CCC(C)(C)C)n2C2CC2)C1 (single isomer, unassigned) [Example F-349] | > 3 | > 3 | – | –
Cc1ccc(NC(=O)[C@@H](CCC(=O)O)Cc2noc([C@H]3C[C@@H](CC(C)(C)C)C3)c2C2CC2)c(C)c1 [Example F-685] | – | – | < 3 | < 3
CC1(c2cc(-c3onc([C@@H](CCC(=O)O)CC(=O)Nc4ccc(F)cc4Cl)c3C3CC3)no2)CCCC1 [Example E-72] | < 3 | < 3 | – | –
Cc1ccc(NC(=O)C[C@H](CCC(=O)O)c2noc3c2C(C)CCC3CCC(C)C)c(Cl)c1 (mixture of isomers) [Example F-691] | – | – | < 3 | < 3
CC(=O)N1C[C@H](C(=O)Nc2ccc(C)cc2C)[C@@H](c2nnc(CCCC(C)(C)C)n2C2CC2)C1 (racemic) [Example F-219] | < 3 | < 3 | – | –
Cc1ccc(NC(=O)C[C@H](CC(C)C)c2nnc(-c3cc(CC(C)C)on3)n2C2CC2)c(C)c1 [Example F-586] | – | – | < 3 | < 3
